{
  "source": "patent US20260234128A1",
  "about": "“CRYSTALLINE FORMS OF 2-(4-(4-(AMINOMETHYL)-1-OXO-1,2- DIHYDROPHTHALAZIN-6-YL)-1-METHYL-1H- PYRAZOL-5-YL)-4-CHLORO-6-CYCLOPROPOXY-3-FLUOROBENZONITRILE” (MIRATI THERAPEUTICS, INC., priority 2023, published 2026)",
  "key": {"[1]": {"experiment": "Intrinsic dissolution rate and drug in capsule dissolution in FaSSGF and FaSSIF", "assay_type": "physicochemical", "procedure": "The IDR rate was calculated using the slope of the linear curve divided by the surface area of tablet (0.5 cm^2). […] 0.6 mL liquid was removed with a syringe at each time point and filtered. The concentration of filtrates was analyzed by HPLC."}, "[2]": {"experiment": "Pharmacokinetics after oral capsule administration in male beagle dogs pre-treated with pentagastrin or famotidine", "assay_type": "in vivo", "procedure": "The substances were filled into Empty HPMC Capsules after correcting for potency and administered to dogs pre-treated with either pentagastrin or famotidine along with 40 mL of water. Pentagastrin enhances gastric secretions whereas famotidine neutralizes gastric sections. Therefore, pentagastrin and famotidine pre-treatments were used to simulate the impact of gastric pH on bioavailability and reduce the variability in gastric pH between dogs.\nPlasma samples were collected at pre-defined intervals and analyzed for the concentration of Compound 1. The plasma concentration versus time data was analyzed by non-compartmental approaches using Win Nonlin software program to estimate PK parameters such as Cmax, Tmax, AUC0-t and AUC0-inf."}, "[3]": {"experiment": "Excipient compatibility (binary mixtures, total impurity by HPLC)", "assay_type": "physicochemical", "from_the_text": "Binary mixtures of samples were created by mixing the substance and the excipients (1:10 Compound to Excipients for fillers and 1:1 for all other excipients) using a mortar and pestle and the resultant mixture was accurately weighed and transferred into sample vials. The excipients used were as follows: colloidal silicon dioxide 200, croscarmellose sodium, crospovidone XL-10, dibasic calcium phosphate (an), hydroxypropyl cellulose, lactose monohydrate, magnesium stearate, mannitol 100SD, MCC PH102, Opadry™ II, povidone K-30, pregelatinized starch 1500, sodium starch glycolate, and sodium stearyl fumarate. The sample vials were set down at 40° C./75% RH condition for 8 weeks in open condition before analyzing their impurity levels using HPLC."}, "[4]": {"experiment": "Dynamic vapor sorption (DVS) hygroscopicity", "assay_type": "physicochemical", "settings": "for form change after DVS evaluation: sample after DVS", "procedure": "The hygroscopicity of HCl Form A was also evaluated by conducting dynamic vapor sorption experiments.\nThe hygroscopicity of HCl Form B was also evaluated by conducting dynamic vapor sorption experiments.\nThe hygroscopicity of HCl Form E was also evaluated by conducting dynamic vapor sorption experiments."}, "[5]": {"experiment": "Manufacturability and physical stability (compressibility, tabletability, compatibility, XRD after compaction)", "assay_type": "physicochemical", "procedure": "The XRD patterns were compared with the uncompressed compound. X-ray powder diffractograms were obtained on a wide-angle X-ray diffraction instrument (X'Pert Pro; PANalytical Inc., West Borough, MA) using Cu Ká radiation. The voltage and current applied were 45 kV and 40 mA, respectively. Each measurement was performed with a step size of 0.0167° in the 2-theta range of 5-35° and a dwell time of 0.4 s."}, "[6]": {"experiment": "Competitive slurry experiments (relative stability of crystal forms)", "assay_type": "physicochemical", "from_the_text": "Pattern A was observed under certain conditions during competitive slurry experiments. Pattern A was confirmed to be racemate by chiral HPLC analysis."}, "[7]": {"settings": "25° C. between 10% relative humidity and 90% relative humidity, hydrochloride salt"}},
  "note": "Counter-ions that a name gives are not always drawn.",
  "data": [
    {"smiles": "Cn1ncc(-c2ccc3c(=O)[nH]nc(CN)c3c2)c1-c1c(F)c(Cl)cc(OC2CC2)c1C#N", "note": "[Free Base Form A, 2-(4-(4-(aminomethyl)-1-oxo-1,2-dihydrophthalazin-6-yl)-1-methyl-1H-pyrazol-5-yl)-4-chloro-6-cyclopropoxy-3-fluorobenzonitrile]", "values": [
      {"measurement": "dissolution in gastric media", "setting": "[1]; 37° C., 50 rpm, USP Type II", "value": "faster dissolution in gastric media"},
      {"measurement": "super saturation in intestinal fluid", "setting": "[1]; pH shifted from gastric to intestinal after 30 minutes", "value": "able to maintain super saturation in intestinal fluid"},
      {"measurement": "exposure", "setting": "[2]; oral 100 mg/dog, when the particle size was normalized", "value": "equivalent exposure to HCl salt"},
      {"measurement": "compatibility with excipients (total impurity content)", "setting": "[3]; binary mixtures, 40° C./75% RH, 8 weeks, open condition, HPLC", "value": "good compatibility with excipients"},
      {"measurement": "sensitivity to individual excipients", "setting": "[3]; colloidal silicon dioxide and lactose monohydrate, 40° C./75% RH, 8 weeks, open", "value": "more sensitive to colloidal silicon dioxide and lactose monohydrate than HCl Form B"},
      {"measurement": "risk of chemical stability", "setting": "[3]; with excipients, manageable by choice of excipients", "value": "slightly higher"}
    ]},
    {"smiles": "Cn1ncc(-c2ccc3c(=O)[nH]nc(CN)c3c2)c1-c1c(F)c(Cl)cc(OC2CC2)c1C#N", "note": "[HCl Form A, 2-(4-(4-(aminomethyl)-1-oxo-1,2-dihydrophthalazin-6-yl)-1-methyl-1H-pyrazol-5-yl)-4-chloro-6-cyclopropoxy-3-fluorobenzonitrile hydrochloride salt]", "values": [
      {"measurement": "stability relative to the other HCl form", "setting": "[2]; conclusion drawn from the dog study results", "value": "less stable than HCl Form B"},
      {"measurement": "water uptake (DVS isotherm)", "setting": "[4]; [7]", "value": "approximately 1.43%"},
      {"measurement": "Hygroscopicity (25° C./80% RH), class in words", "setting": "[4]", "value": "slightly"},
      {"measurement": "Hygroscopicity (25° C./80% RH)", "setting": "[4]; hydrochloride salt", "value": 1.43, "unit": "%"},
      {"measurement": "form change after DVS evaluation", "setting": "[4]", "value": "No form change was observed"}
    ]},
    {"smiles": "Cn1ncc(-c2ccc3c(=O)[nH]nc(CN)c3c2)c1-c1c(F)c(Cl)cc(OC2CC2)c1C#N", "note": "[HCl Form B, 2-(4-(4-(aminomethyl)-1-oxo-1,2-dihydrophthalazin-6-yl)-1-methyl-1H-pyrazol-5-yl)-4-chloro-6-cyclopropoxy-3-fluorobenzonitrile hydrochloride salt]", "values": [
      {"measurement": "compatibility (tensile strength vs porosity)", "setting": "[5]; at high pressures", "value": "good"},
      {"measurement": "compressibility (porosity vs compaction pressure)", "setting": "[5]; at high pressures", "value": "good"},
      {"measurement": "tabletability (tensile strength vs compaction pressure)", "setting": "[5]; at high pressures", "value": "good"},
      {"measurement": "phase stability by XRD after compression", "setting": "[5]; high compaction pressure (300 MPa)", "value": "loss of crystallinity was observed"},
      {"measurement": "dissolution rate in intestinal media", "setting": "[1]; 37° C., 50 rpm, USP Type II", "value": "slightly faster dissolution rate than Free Base Form A"},
      {"measurement": "dissolution in gastric media", "setting": "[1]; 37° C., 50 rpm, USP Type II, hydrochloride salt", "value": "common ion effect slowing dissolution"},
      {"measurement": "water uptake (DVS isotherm)", "setting": "[4]; [7]", "value": "approximately 1.3%"},
      {"measurement": "Hygroscopicity (25° C./80% RH), class in words", "setting": "[4]", "value": "slightly"},
      {"measurement": "Hygroscopicity (25° C./80% RH)", "setting": "[4]; hydrochloride salt", "value": 1.3, "unit": "%"},
      {"measurement": "form change after DVS evaluation", "setting": "[4]", "value": "No form change was observed"}
    ]},
    {"smiles": "Cn1ncc(-c2ccc3c(=O)[nH]nc(CN)c3c2)c1-c1c(F)c(Cl)cc(OC2CC2)c1C#N", "note": "[HCl Form E, 2-(4-(4-(aminomethyl)-1-oxo-1,2-dihydrophthalazin-6-yl)-1-methyl-1H-pyrazol-5-yl)-4-chloro-6-cyclopropoxy-3-fluorobenzonitrile hydrochloride salt]", "values": [
      {"measurement": "water uptake (DVS isotherm)", "setting": "[4]; 25° C. between 0% relative humidity and 80% relative humidity", "value": "approximately 2.56%"},
      {"measurement": "Hygroscopicity (25° C./80% RH), class in words", "setting": "[4]", "value": "slightly"},
      {"measurement": "Hygroscopicity (25° C./80% RH)", "setting": "[4]; hydrochloride salt", "value": 2.56, "unit": "%"},
      {"measurement": "form change after DVS evaluation", "setting": "[4]", "value": "No form change was observed"},
      {"measurement": "Crystal Form", "setting": "[6]; H2O (starting with Type E only) at 25° C., 4 d", "value": "Form B"},
      {"measurement": "Crystal Form", "setting": "[6]; H2O (starting with Type E only) at 25° C., 8 d", "value": "Form B"}
    ]},
    {"smiles": "Cn1ncc(-c2ccc3c(=O)[nH]nc(CN)c3c2)c1-c1c(F)c(Cl)cc(OC2CC2)c1C#N", "note": "[HCl salt, 2-(4-(4-(aminomethyl)-1-oxo-1,2-dihydrophthalazin-6-yl)-1-methyl-1H-pyrazol-5-yl)-4-chloro-6-cyclopropoxy-3-fluorobenzonitrile hydrochloride salt]", "values": [
      {"measurement": "variability of plasma exposure", "setting": "[2]; pentagastrin-treated dogs, oral 100 mg/dog, ascribed to common ion effect in the gastric media", "value": "high variability"}
    ]},
    {"smiles": "Cn1ncc(-c2ccc3c(=O)[nH]nc(CN)c3c2)c1-c1c(F)c(Cl)cc(OC2CC2)c1C#N", "note": "[amorphous HCl salt, 2-(4-(4-(aminomethyl)-1-oxo-1,2-dihydrophthalazin-6-yl)-1-methyl-1H-pyrazol-5-yl)-4-chloro-6-cyclopropoxy-3-fluorobenzonitrile]", "values": [
      {"measurement": "Crystal Form", "setting": "[6]; EtOH/H2O (40:60 v/v) at 25° C., 1d (a clear solution was obtained before precipitation)", "value": "Pattern A"}
    ]}
  ]
}
